Read-outs that look alike come from different tables or passages of the source.
Legend:
Puccinia triticina = assay: Fungicidal activity: wheat brown rust (PUCCRT), disease control on wheat seedlings; format: in vivo, Puccinia triticina on wheat plants (variety Yuma); conditions: low volume application, 121.5 g/H
Procedure: Technical grades of materials were dissolved in acetone, which were then mixed with nine volumes of water (H2O) containing 110 ppm Triton X-100. The fungicide solutions were applied onto wheat seedlings using an automated booth sprayer to run-off. All sprayed plants were allowed to air dry prior to further handling. All fungicides were evaluated using the aforementioned method for their activity vs. all target diseases, unless stated otherwise. Wheat leaf blotch and brown rust activity were also evaluated using track spray applications, in which case the fungicides were formulated as EC formulations, containing 0.1% Trycol 5941 in the spray solutions. Evaluation of Fungicidal Activity: Wheat Brown Rust (Puccinia triticina; Synonym: Puccinia recondita f. Sp. Tritici; Bayer Code PUCCRT) Wheat plants (variety Yuma) were grown from seed in a greenhouse in 50% mineral soil/50% soil-less Metro mix until the first leaf was fully emerged, with 7-10 seedlings per pot. These plants were inoculated with an aqueous spore suspension of Puccinia triticina either prior to or after fungicide treatments. After inoculation the plants were kept in a dark dew room at 22° C. with 100% relative humidity overnight to permit spores to germinate and infect the leaf. The plants were then transferred to a greenhouse set at 24° C. for disease to develop. Fungicide formulation, application and disease assessment followed the procedures as described in the Example A. The results of the evalution are shown below in Table 4.

Phakopsora pachyrhizi = assay: Fungicidal activity: Asian soybean rust (PHAKPA), disease control on soybean seedlings; format: in vivo; conditions: 24 h, 1 day protectant, read-out: PHAKPA 1DP disease control at 25 ppm
Procedure: Evaluation of Fungicidal Activity: Asian Soybean Rust (Phakopsora Pachyrhizi; Bayer Code PHAKPA)
Technical grades of materials were dissolved in acetone, which were then mixed with nine volumes of H2O containing 0.011% Tween 20. The fungicide solutions were applied onto soybean seedlings using an automated booth sprayer to run-off. All sprayed plants were allowed to air dry prior to further handling.
Soybean plants (variety Williams 82) were grown in soil-less Metro mix, with one plant per pot. Two weeks old seedlings were used for testing. Plants were inoculated either 3 days prior to or 1 day after fungicide treatments. Plants were incubated for 24 h in a dark dew room at 22° C. and 100% relative humidity then transferred to a growth room at 23° C. for disease to develop. Disease severity was assessed on the sprayed leaves.

Zymoseptoria tritici = assay: Fungicidal activity: leaf blotch of wheat (SEPTTR), disease control on wheat seedlings; format: in vivo, Zymoseptoria tritici on wheat plants (variety Yuma); conditions: low volume application, 121.5 g/H
Procedure: Evaluation of Fungicidal Activity: Leaf Blotch of Wheat (Zymoseptoria Tritici; Bayer Code […]) Technical grades of materials were dissolved in acetone, which were then mixed with nine volumes of water (H2O) containing 110 ppm Triton X-100. The fungicide solutions were applied onto wheat seedlings using an automated booth sprayer to run-off. All sprayed plants were allowed to air dry prior to further handling. All fungicides were evaluated using the aforementioned method for their activity vs. all target diseases, unless stated otherwise. Wheat leaf blotch and brown rust activity were also evaluated using track spray applications, in which case the fungicides were formulated as EC formulations, containing 0.1% Trycol 5941 in the spray solutions. Wheat plants (variety Yuma) were grown from seed in a greenhouse in 50% mineral soil/50% soil-less Metro mix until the first leaf was fully emerged, with 7-10 seedlings per pot. These plants were inoculated with an aqueous spore suspension of Zymoseptoria tritici either prior to or after fungicide treatments. After inoculation the plants were kept in 100% relative humidity (one day in a dark dew chamber followed by two to three days in a lighted dew chamber at 20° C.) to permit spores to germinate and infect the leaf. The plants were then transferred to a greenhouse set at 20° C. for disease to develop. When disease symptoms were fully expressed on the 1st leaves of untreated plants, infection levels were assessed on a scale of 0 to 100 percent disease severity. Percent disease control was calculated using the ratio of disease severity on treated plants relative to untreated plants.

[1] = 72 h, 3 day curative, read-out: PUCCRT 3DC disease control, LV activity at 121.5 g/H
[2] = 24 h, 1 day protectant, read-out: SEPTTR 1DP disease control, LV activity at 121.5 g/H
[3] = 72 h, 3 day curative, read-out: SEPTTR 3DC disease control, LV activity at 121.5 g/H
[4] = 24 h, 1 day protectant, read-out: PUCCRT 1DP disease control, LV activity at 121.5 g/H

Compound	pest or weed control at 121.5 g/ha (Puccinia triticina; [1]) [%]	pest or weed control at 25 ppm (Phakopsora pachyrhizi) [%]	pest or weed control at 121.5 g/ha (Zymoseptoria tritici; [2]) [%]	pest or weed control at 121.5 g/ha (Zymoseptoria tritici; [3]) [%]	pest or weed control at 121.5 g/ha (Puccinia triticina; [4]) [%]
COc1ccnc(C(=S)N[C@@H](C)C(=O)O[C@H](CC(C)C)[C@H](C)Oc2ccccc2)c1OC(C)=O [Compound 40]	≤ 80	≤ 80	–	–	–
COc1ccnc(C(=S)N[C@@H](C)C(=O)O[C@@H](C)C(c2ccc(Cl)cc2)c2ccc(Cl)cc2)c1OC(C)=O [Compound 47]	≤ 80	–	> 80	> 80	> 80
COc1ccnc(C(=S)N[C@@H](C)C(=O)O[C@@H](C)C(c2ccc(C)cc2C)c2ccc(C)cc2C)c1OC(C)=O [Compound 48]	–	–	> 80	> 80	> 80
COc1ccnc(C(=S)N[C@@H](C)C(=O)O[C@@H](C)[C@H](Oc2ccc(Cl)cc2Cl)c2ccccc2)c1OC(C)=O [Compound 49]	–	–	≤ 80	–	≤ 80
COc1ccnc(C(=S)N[C@@H](C)C(=O)O[C@@H](C)C(c2ccc(C)cc2)c2ccc(C)cc2)c1OC(C)=O [Compound 50]	> 80	–	> 80	> 80	> 80
COc1ccnc(C(=S)N[C@@H](C)C(=O)O[C@@H](C)[C@@H](c2ccccc2)c2ccc(F)cc2)c1OC(C)=O [Compound 51]	≤ 80	–	> 80	> 80	> 80
COc1cc(Cl)ccc1C(c1ccc(Cl)cc1OC)[C@H](C)OC(=O)[C@H](C)NC(=S)c1nccc(OC)c1OC(C)=O [Compound 52]	≤ 80	–	> 80	> 80	> 80
COc1ccc(C(c2ccc(OC)cc2F)[C@H](C)OC(=O)[C@H](C)NC(=S)c2nccc(OC)c2OC(C)=O)c(F)c1 [Compound 53]	≤ 80	–	> 80	> 80	> 80
COc1ccccc1C(c1ccccc1OC)[C@H](C)OC(=O)[C@H](C)NC(=S)c1nccc(OC)c1OC(C)=O [Compound 54]	–	–	> 80	> 80	> 80
COc1ccnc(C(=S)N[C@@H](C)C(=O)O[C@H](C(C)C)[C@H](C)Oc2ccc(C)cc2)c1OC(C)=O [Compound 56]	> 80	–	≤ 80	≤ 80	> 80
COc1ccnc(C(=S)N[C@@H](C)C(=O)O[C@@H](C)[C@H](Oc2ccccc2Cl)c2ccccc2)c1OC(C)=O [Compound 57, (1R,2S)-1-(2-chlorophenoxy)-1-phenylpropan-2-yl (3-acetoxy-4-methoxypyridine-2-carbonothioyl)-L-alaninate]	≤ 80	–	> 80	> 80	> 80
COc1ccc(O[C@@H](C)[C@H](OC(=O)[C@H](C)NC(=S)c2nccc(OC)c2OC(C)=O)C(C)C)cc1 [Compound 58]	> 80	–	> 80	> 80	> 80

Reference: patent US10172358B2, “Thiopicolinamide compounds with fungicidal activity” (Dow AgroSciences LLC, priority 2016, dated 2019)
